According to US20230277508A1, “USE OF COMPOUND AS CYP2E1 INHIBITOR” (SHANGHAI LING XI BIOTECHNOLOGY DEVELOPMENT CO., LTD., priority 2020, published 2023):

Key:
[1] = system: LPS-induced acute lung injury (ALI) in mice; experiment: LPS-induced mouse lung injury; assay type: in vivo, C57BL/6N mouse
Description: Experimental method: A C57BL/6N mouse pulmonary fibrosis model was established through intratracheal instillation with 8 mg/kg LPS. An SMI0 intervention group was divided into a low-dose group and a high-dose group, which were intragastrically administered with the compound SMI0 respectively at 30 mg/kg and 90 mg/kg every day from three days before modeling until 6 h before the end of the modeling (control group, n=8; model group, n=8; and SMI0 compound high-dose group, n=8). At the end of the experiment, a body weight of mice in each group was recorded, blood was collected from the orbit, the mice were sacrificed, and lung tissues were collected and weighed. The left lungs were fixed in 4% formalin and subjected to HE staining.
Experimental method: A neutrophil level in a mouse lung tissue was evaluated through immunohistochemistry (IHC) staining, and an immunostaining-positive area percentage was quantitatively evaluated by Image-Pro Plus software. RNA of a mouse lung tissue was extracted by a kit method, and expression levels of TNF-α and IL-1β in lung tissues of mice were determined by RT-PCR.

[2] = system: lung cancer cell line Lewis in situ transplanted tumor; experiment: Mouse lung cancer model, in situ implantation of Lewis cells into lungs; assay type: in vivo, C57BL/6N mice
Description: Experimental method: A female C57 mouse lung cancer model with an in situ transplanted tumor was prepared with a lung cancer cell line Lewis at a cell amount of 2*10^4. C57BL/6N mice were divided into a control group, a model group, a positive drug group, and an SMI0 intervention group, and the modeling took 18 days (control group, n=20; model group, n=20; positive drug group (20 mg/kg), n=15; SMI0 (3.3 mg/kg), n=15; SMI0 (10 mg/kg), n=20; and SMI0 (30 mg/kg), n=20). At the end of the experiment, a body weight of mice in each group was recorded, blood was collected from the orbit, the mice were sacrificed, and lung tissues and tumor tissues were collected and weighed. The weight and appearance of the lung (color, texture, or the like of the lung) were recorded. All tumors of an animal were cumulatively arranged together to indicate the tumorigenesis of the animal, and a cumulative weight of lung tumors in each animal was determined. Some lung specimens were subjected to HE staining, and then the lung lesion and tumorigenesis of mice in each group were observed.
Experimental method: A WB method was used to detect the expression of […] cytokines TGF-β, IL-10, and IL-4, inflammation-associated signaling pathway proteins IL-6/p-STAT3 and p-ERK1/2/ERK1/2, and epithelial-mesenchymal transition (EMT)-associated proteins MMP-2 and MMP-9 in the mouse paracancerous lung tissue of each group and detect the expression of […] proteins caspase3 and Bcl-2 and an autophagy-associated protein p53 in the tumor tissue.

[3] = system: liver cancer cell line H22 in situ transplanted tumor; experiment: Mouse liver cancer model, in situ implantation of H22 cells into liver; assay type: in vivo, BALB/c mouse; conditions: for liver H22 tumor incidence: 24 days, model group 100%
Description: Experimental method: A male BALB/c mouse liver transplanted tumor model was constructed through in situ implantation of a liver cancer cell line H22 into the liver, with a cell concentration of 1.5*10^5. An SMI0 intervention group was divided into a low-dose group, a medium-dose group, and a high-dose group, which were intragastrically administered with the compound SMI0 respectively at 3.3 mg/kg, 10 mg/kg, and 30 mg/kg every day from two days before modeling to the end of the 24-day modeling (model group, n=19 mice; SMI0 compound low-dose group, n=19 mice; SMI0 compound medium-dose group, n=18 mice; and SMI0 compound high-dose group, n=29 mice). At the end of the experiment, blood was collected from the orbit, a body weight was measured, and then the mice each were sacrificed. The weight and appearance of a liver (color and texture of the liver) were recorded. Some liver specimens were subjected to HE staining, and then the liver lesion and tumorigenesis of mice in each group were observed.
Experimental method: The levels of oxidative stress indexes MDA and T-AOC in the mouse paracancerous liver tissue were determined by a kit method; the expression of the chemokine CXCL-12 in the mouse paracancerous liver tissue was detected by RT-PCR; the expression of proinflammatory cytokines (TNF-α, IL-6, and IL-1β) and inflammation-associated signaling pathway proteins (ARRB1, Src, ITGAV, p-STAT3/STAT3, p-ERK/ERK, and p-P38MAPK/P38MAPK) in the mouse paracancerous liver tissue was detected by a WB method; and the expression of apoptosis-associated proteins and signaling pathways casPase3, cleaved casPase3, p-ERK/ERK, and p-p38MAPK/p38MAPK in the tumor tissue was detected by a WB method.

[4] = system: cognitive dysfunction in STZ-induced AD rat model; experiment: STZ-induced AD rat model, Morris water maze; assay type: in vivo, SD rat; conditions: for Number of crossing platform / Time spent in the platform quadrant: MWM spatial exploration; for Number of crossing platform / Time spent in the platform quadrant / Incubation period Day 1 / Incubation period Day 2 / Incubation period Day 3 / Incubation period Day 4 / Incubation period Day 5 / Incubation period Day 6: n=15; for Incubation period Day 1 / Incubation period Day 2 / Incubation period Day 3 / Incubation period Day 4 / Incubation period Day 5 / Incubation period Day 6: MWM
Description: Experimental method: A male SD rat AD model was constructed through bilateral intracerebroventricular injection of STZ, where STZ was injected at 3 mg/kg on day 1 and STZ was injected at 1.5 mg/kg on day 3. STZ was injected into bilateral cerebral ventricles (0.9 mm posterior to the anterior fontanelle, 1.5 mm at the left or right of the sagittal suture, and below the brain surface and 3.8 mm to the skull) by a brain stereotaxic instrument. The sham-operated group was injected with a same volume of a control solvent according to same operations. The low-dose and high-dose prevention and treatment groups were intragastrically administered with the compound SMI0 respectively at 10 mg/kg and 30 mg/kg starting from day 11 after modeling, and the administration was conducted consecutively for 21 d. On day 14 of the continuous administration (that is, on […] of modeling), the Morris water maze (MWM) was used to conduct spatial positioning navigation training consecutively for 6 d, and a spatial exploration experiment was conducted 24 h after the spatial positioning navigation training was completed (15 rats in each group).

[5] = RT-PCR, SMI0 high-dose group vs model group, P<0.05
[6] = WB, SMI0 30 mg/kg vs model group, P<0.01
[7] = WB, SMI0 30 mg/kg vs model group, P<0.05
[8] = WB, SMI0 30 mg/kg vs model group

CC(=O)c1scnc1C [SMI0]
expression level of IL-1β in the lung tissue [1, 5]: significantly reduced | expression level of TNF-α in the lung tissue [1, 5]: significantly reduced | lung injury score ([1]; SMI0 administration group vs model group): significant reduced | MPO immunostaining-positive area percentage in lung tissue ([1]; SMI0 high-dose group vs model group, P<0.05): significantly reduced | lung index ([1]; both SMI0 low-dose (30 mg/kg) and high-dose (90 mg/kg) groups, ig daily, vs model group, P<0.01): significantly reduced | expression of the autophagy-associated protein p53 in the tumor tissue [2, 6]: significantly increased | expression of Bcl-2 in the tumor tissue [2, 7]: significantly reduced | expression of caspase3 in the tumor tissue [2, 7]: significantly reduced | expression of proinflammatory cytokines (TGF-β and IL-10), IL-6/p-STAT3, p-ERK1/2/ERK1/2, MMP-2 and MMP-9 in the paratumoral tissue ([2]; WB, SMI0 intervention group vs model group, P<0.05): significantly reduced | tumor proliferation inhibition rate ([2]; as high as, SMI0 intervention group (3.3, 10, 30 mg/kg), 18 days, lung tumor weight): 68.3% | liver H22 tumor incidence ([3]; SMI0 high-dose 30 mg/kg ig daily): 68.4% | total oxidation resistance index T-AOC in paratumoral liver tissue ([3]; SMI0 intervention group vs model group, P<0.01): significantly increased | expression of other proteins (MDA, CXCL-12, TNF-α, IL-6, IL-1β, ARRB1, Src, ITGAV, p-STAT3/STAT3, p-ERK/ERK, p-p38MAPK/p38MAPK) in paratumoral liver tissue ([3]; SMI0 intervention group vs model group, P<0.05 or P<0.01): significantly reduced | liver H22 tumor incidence ([3]; SMI0 low-dose 3.3 mg/kg ig daily): 78.9% | liver H22 tumor incidence ([3]; SMI0 medium-dose 10 mg/kg ig daily): 72.2% | expression of p-ERK/ERK in the tumor tissue [3, 8]: significantly down-regulated | expression of p-p38MAPK/p38MAPK in the tumor tissue [3, 8]: significantly down-regulated | expression of cleaved caspase3/caspase3 in the tumor tissue [3, 6]: significantly up-regulated | tumor proliferation inhibition rate ([3]; as high as, SMI0 intervention group (3.3, 10, 30 mg/kg), cumulative liver tumor weight): 71.8% | Number of crossing platform ([4]; SMI0 10 mg/kg ig): 5.1 | Time spent in the platform quadrant ([4]; SMI0 10 mg/kg ig): 29.4% | Number of crossing platform ([4]; SMI0 30 mg/kg ig): 8.2 | Time spent in the platform quadrant ([4]; SMI0 30 mg/kg ig): 39.3% | Incubation period Day 1 ([4]; SMI0 10 mg/kg ig for 21 d): 95.7 s | Incubation period Day 2 ([4]; SMI0 10 mg/kg ig for 21 d): 61.1 s | Incubation period Day 3 ([4]; SMI0 10 mg/kg ig for 21 d): 39.5 s | Incubation period Day 4 ([4]; SMI0 10 mg/kg ig for 21 d): 33.2 s | Incubation period Day 5 ([4]; SMI0 10 mg/kg ig for 21 d): 23.1 s | Incubation period Day 6 ([4]; SMI0 10 mg/kg ig for 21 d): 18.5 s | Incubation period Day 1 ([4]; SMI0 30 mg/kg ig for 21 d): 94.6 s | Incubation period Day 2 ([4]; SMI0 30 mg/kg ig for 21 d): 52.7 s | Incubation period Day 3 ([4]; SMI0 30 mg/kg ig for 21 d): 35.9 s | Incubation period Day 4 ([4]; SMI0 30 mg/kg ig for 21 d): 25.2 s | Incubation period Day 5 ([4]; SMI0 30 mg/kg ig for 21 d): 20.0 s | Incubation period Day 6 ([4]; SMI0 30 mg/kg ig for 21 d): 18.6 s | improvement rate of ICV-STZ-induced cognitive dysfunction ([4]; SMI0 high-dose group (30 mg/kg), vs model group, significant): 46.7% | improvement rate of ICV-STZ-induced cognitive dysfunction ([4]; SMI0 low-dose group (10 mg/kg), without a significant statistical difference): 32.6%
